Test results taken from patent US20130165464A1, “HETEROARYLS AND USES THEREOF” (MILLENNIUM PHARMACEUTICALS, INC., priority 2011, published 2013).

Molecular target: T1, VPS34 (Homo sapiens, UniProt Q8NEB9)
T1 construct: GST (N); host or cells: SF9 insect cells (baculovirus)
Test: Human VPS34 enzyme assay (Adapta TR-FRET)
Type: biochemical
Conditions: for inhibition at 1.11 µM: 1 h, at a 1.11 μM concentration, read-out: VPS34 Percent Inhibition
Protocol: VPS34 (accession number GB:BCO33004) was cloned into pDEST20-Thombin as N-terminal GST tagged fusion proteins using the Gateway system (Invitrogen, catalog#11804-013). The sequences were verified before recombinant protein expression using the Baculovirus Expression System with Gateway® Technology.
For expression VPS34 was infected at 1MOI in SF9 cells and harvested 72 hours post infection.
For purification, VPS34 is purified by Glutathione Sepharose 4 Fast Flow (GE Healthcare #17-5132-03) followed by HiTrap Q (GE Healthcare #17-1153-01).
Human VPS34 Enzyme Assay Method
100 nL compounds in DMSO are added to wells of a 384 well microtitre plate (Greiner 780076). At room temperature: 5 ul VPS34 reaction buffer (Invitrogen Assay Buffer Q (diluted 1 in 5 with nanopure water) plus 2 mM DTT and 2 mM MnCl2) containing ATP (20 uM, Promega) and 200 uM PI-PS substrate (Invitrogen PV5122) is added followed immediately by 5 ul VPS34 reaction buffer (as above) containing VPS34 (5 nM, Millennium Protein Sciences Group) and the mixture is incubated with shaking at room temperature for 1 hour. Then 5 ul VPS34 stop-detect mix (as per Invitrogen Adapta Assay kit (PV5009) instructions (contains kinase quench buffer, TR-FRET buffer, Adapta Eu anti-ADP antibody and Alexa Fluor 647 ADP tracer)) is added to quench the reaction. The plates are then incubated for 30 minutes at room temperature with shaking and then read on a BMG PheraStar Plus reader.
For the assay methods described above, test compound percent inhibition, at various concentrations, is calculated relative to control (DMSO and EDTA) treated samples. Compound concentration versus percent inhibition curves are fitted to generate IC50 values. One skilled in the art will appreciate that the values generated either as percentage inhibition at a single concentration or IC50 values are subject to experimental variation.

T1 sequence (Q8NEB9 whole entry): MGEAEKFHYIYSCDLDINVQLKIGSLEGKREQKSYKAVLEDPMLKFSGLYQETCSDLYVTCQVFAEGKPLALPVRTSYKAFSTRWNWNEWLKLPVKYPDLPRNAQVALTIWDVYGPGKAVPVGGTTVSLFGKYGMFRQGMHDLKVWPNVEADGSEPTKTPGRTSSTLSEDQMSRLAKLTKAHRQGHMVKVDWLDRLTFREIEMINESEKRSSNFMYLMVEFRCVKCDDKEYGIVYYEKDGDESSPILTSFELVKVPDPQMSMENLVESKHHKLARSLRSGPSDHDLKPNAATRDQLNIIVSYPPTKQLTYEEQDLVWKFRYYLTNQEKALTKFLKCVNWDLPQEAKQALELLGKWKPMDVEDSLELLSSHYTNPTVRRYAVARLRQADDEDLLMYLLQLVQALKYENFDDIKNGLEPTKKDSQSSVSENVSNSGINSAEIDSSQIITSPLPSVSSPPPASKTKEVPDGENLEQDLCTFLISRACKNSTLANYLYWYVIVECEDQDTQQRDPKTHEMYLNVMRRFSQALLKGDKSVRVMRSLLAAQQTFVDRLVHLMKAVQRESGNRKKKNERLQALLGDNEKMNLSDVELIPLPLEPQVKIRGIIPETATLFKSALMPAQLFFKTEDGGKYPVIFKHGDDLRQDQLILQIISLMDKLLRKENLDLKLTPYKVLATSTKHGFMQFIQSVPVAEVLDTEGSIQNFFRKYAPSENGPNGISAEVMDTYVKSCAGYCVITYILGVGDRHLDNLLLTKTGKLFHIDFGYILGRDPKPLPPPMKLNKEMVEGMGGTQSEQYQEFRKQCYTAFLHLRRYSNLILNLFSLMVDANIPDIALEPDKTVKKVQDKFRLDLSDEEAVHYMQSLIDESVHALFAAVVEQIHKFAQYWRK

Row | IC50 [nM] | inhibition at 1.11 µM [%] | SMILES
1 | < 50 | > 99 | CC(=O)Nc1cc(-n2cc(-c3nc[nH]n3)c(-c3ccccc3Cl)n2)c(F)cn1 [I-44, N-{4-[3-(2-chlorophenyl)-4-(1H-1,2,4-triazol-3-yl)-1H-pyrazol-1-yl]-5-fluoropyridin-2-yl}acetamide]
2 |  | > 99 | CC(=O)Nc1cc(-n2cc(-c3nc[nH]n3)c(-c3ccccc3C(F)(F)F)n2)c(C)cn1 [I-48, N-(5-methyl-4-{4-(1H-1,2,4-triazol-3-yl)-3-[2-(trifluoromethyl)phenyl]-1H-pyrazol-1-yl}pyridin-2-yl)acetamide]
3 | < 50 | > 99 | CC(=O)Nc1cc(-n2cc(-c3nc[nH]n3)c(-c3ccccc3Cl)n2)ccn1 [I-12, N-{4-[3-(2-chlorophenyl)-4-(1H-1,2,4-triazol-3-yl)-1H-pyrazol-1-yl]pyridin-2-yl}acetamide]
4 | 150 to 1000 | 54 | CC(=O)Nc1cc(-n2cc(-c3ncn[nH]3)c(-c3ccnc(Cl)c3)n2)c(C)cn1 [I-106, N-{4-[3-(2-chloropyridin-4-yl)-4-(1H-1,2,4-triazol-5-yl)-1H-pyrazol-1-yl]-5-methylpyridin-2-yl}acetamide]
5 | 1000 to 5000 | 14 | O=C(O)c1cn(-c2ccnc(NCCc3ccccc3)n2)nc1-c1ccccc1Cl [I-30, 3-(2-chlorophenyl)-1-{2-[(2-phenylethyl)amino]pyrimidin-4-yl}-1H-pyrazole-4-carboxylic acid]
6 | 1000 to 5000 | 23 | CC(=O)Nc1cc(-n2cc(-c3nc[nH]n3)c(-c3cc(CN(C)C)ccc3Cl)c2)c(C)cn1 [I-76, N-{4-[3-{2-chloro-5-[(dimethylamino)methyl]phenyl}-4-(1H-1,2,4-triazol-3-yl)-1H-pyrrol-1-yl]-5-methylpyridin-2-yl}acetamide]
7 |  | > 99 | CC(=O)Nc1cc(-n2cc(-c3nc[nH]n3)c(-c3ccccc3C#N)n2)c(C)cn1 [I-52, N-{4-[3-(2-cyanophenyl)-4-(1H-1,2,4-triazol-3-yl)-1H-pyrazol-1-yl]-5-methylpyridin-2-yl}acetamide]
8 | 150 to 1000 | 81 | CC(=O)Nc1cc(-n2cc(-c3ccccc3)c(-c3nnc[nH]3)c2)c(C)cn1 [I-53, N-{5-methyl-4-[3-phenyl-4-(4H-1,2,4-triazol-3-yl)-1H-pyrrol-1-yl]pyridin-2-yl}acetamide]
9 | < 50 | > 99 | Cc1cnc(NC(=O)C2CC2)cc1-n1cc(-c2nc[nH]n2)c(-c2cc(CN3CCCC3)ccc2Cl)c1 [I-84, N-(4-{3-[2-chloro-5-(pyrrolidin-1-ylmethyl)phenyl]-4-(1H-1,2,4-triazol-3-yl)-1H-pyrrol-1-yl}-5-methylpyridin-2-yl)cyclopropanecarboxamide]
10 | < 50 | > 99 | CC(=O)Nc1cc(-n2cc(-c3nnc[nH]3)c(-c3ccc(Cl)cc3Cl)n2)c(C)cn1 [I-39, N-{4-[3-(2,4-dichlorophenyl)-4-(4H-1,2,4-triazol-3-yl)-1H-pyrazol-1-yl]-5-methylpyridin-2-yl}acetamide]
11 | < 50 | 97 | COC(=O)Nc1cc(-n2cc(-c3ncc[nH]3)c(-c3ccccc3Cl)c2)c(C)cn1 [I-109, methyl {4-[3-(2-chlorophenyl)-4-(1H-imidazol-2-yl)-1H-pyrrol-1-yl]-5-methylpyridin-2-yl}carbamate]
12 | 150 to 1000 | > 99 | CC(=O)Nc1cc(-n2cc(C(N)=O)c(-c3ccccc3Cl)n2)c(Cl)cn1 [I-9, 1-(2-acetamido-5-chloropyridin-4-yl)-3-(2-chlorophenyl)-1H-pyrazole-4-carboxamide]
13 |  | 85 | COC(=O)Nc1cc(-n2cc(C(N)=O)c(-c3ccccc3Cl)c2)c(Cl)cn1 [I-51, methyl {4-[3-carbamoyl-4-(2-chlorophenyl)-1H-pyrrol-1-yl]-5-chloropyridin-2-yl}carbamate]
14 | 1000 to 5000 | 44 | O=C(O)c1cn(-c2ccnc(NCCc3ccc(O)cc3)n2)nc1-c1ccccc1Cl [I-29, 3-(2-chlorophenyl)-1-(2-{[2-(4-hydroxyphenyl)ethyl]amino}pyrimidin-4-yl)-1H-pyrazole-4-carboxylic acid]
15 | < 50 | > 99 | COC(=O)Nc1cc(-n2cc(-c3ncc[nH]3)c(-c3ccccc3Cl)n2)c(C)cn1 [I-64, methyl {4-[3-(2-chlorophenyl)-4-(1H-imidazol-2-yl)-1H-pyrazol-1-yl]-5-methylpyridin-2-yl}carbamate]
16 | 1000 to 5000 | 15 | Cc1cnc(N)cc1-n1cc(C(N)=O)c(-c2cc(CN3CCCC3)ccc2Cl)c1 [I-75, 1-(2-amino-5-methylpyridin-4-yl)-4-[2-chloro-5-(pyrrolidin-1-ylmethyl)phenyl]-1H-pyrrole-3-carboxamide]
17 | < 50 | > 99 | CCC(=O)Nc1cc(-n2cc(C(N)=O)c(-c3ccccc3Cl)c2)c(C)cn1 [I-28, 4-(2-chlorophenyl)-1-[5-methyl-2-(propionylamino)pyridin-4-yl]-1H-pyrrole-3-carboxamide]
18 |  | > 99 | CCOc1ccc(-c2nn(-c3cc(NC(C)=O)ncc3C)cc2-c2nc[nH]n2)c(Cl)c1 [I-68, N-{4-[3-(2-chloro-4-ethoxyphenyl)-4-(1H-1,2,4-triazol-3-yl)-1H-pyrazol-1-yl]-5-methylpyridin-2-yl}acetamide]
19 | < 50 | > 99 | Cc1cnc(NC(=O)OCCF)cc1-n1cc(-c2nc[nH]n2)c(-c2ccccc2Cl)c1 [I-81, 2-fluoroethyl {4-[3-(2-chlorophenyl)-4-(1H-1,2,4-triazol-3-yl)-1H-pyrrol-1-yl]-5-methylpyridin-2-yl}carbamate]
20 | 150 to 1000 | 78 | Cc1cnc(NC(=O)C(C)C)cc1-n1cc(-c2nc[nH]n2)c(-c2ccccc2Cl)c1 [I-26, N-{4-[3-(2-chlorophenyl)-4-(1H-1,2,4-triazol-3-yl)-1H-pyrrol-1-yl]-5-methylpyridin-2-yl}-2-methylpropanamide]
